Consider 30 compounds from US12252488B2 (Nimbus Saturn, Inc., priority 2021, dated 2025).

pIC50: −log10 of the molar value.

The target of this test is T1, HPK1 (Homo sapiens, UniProt Q92918).
T1 construct: purchased Invitrogen
T1 sequence (Q92918 whole entry): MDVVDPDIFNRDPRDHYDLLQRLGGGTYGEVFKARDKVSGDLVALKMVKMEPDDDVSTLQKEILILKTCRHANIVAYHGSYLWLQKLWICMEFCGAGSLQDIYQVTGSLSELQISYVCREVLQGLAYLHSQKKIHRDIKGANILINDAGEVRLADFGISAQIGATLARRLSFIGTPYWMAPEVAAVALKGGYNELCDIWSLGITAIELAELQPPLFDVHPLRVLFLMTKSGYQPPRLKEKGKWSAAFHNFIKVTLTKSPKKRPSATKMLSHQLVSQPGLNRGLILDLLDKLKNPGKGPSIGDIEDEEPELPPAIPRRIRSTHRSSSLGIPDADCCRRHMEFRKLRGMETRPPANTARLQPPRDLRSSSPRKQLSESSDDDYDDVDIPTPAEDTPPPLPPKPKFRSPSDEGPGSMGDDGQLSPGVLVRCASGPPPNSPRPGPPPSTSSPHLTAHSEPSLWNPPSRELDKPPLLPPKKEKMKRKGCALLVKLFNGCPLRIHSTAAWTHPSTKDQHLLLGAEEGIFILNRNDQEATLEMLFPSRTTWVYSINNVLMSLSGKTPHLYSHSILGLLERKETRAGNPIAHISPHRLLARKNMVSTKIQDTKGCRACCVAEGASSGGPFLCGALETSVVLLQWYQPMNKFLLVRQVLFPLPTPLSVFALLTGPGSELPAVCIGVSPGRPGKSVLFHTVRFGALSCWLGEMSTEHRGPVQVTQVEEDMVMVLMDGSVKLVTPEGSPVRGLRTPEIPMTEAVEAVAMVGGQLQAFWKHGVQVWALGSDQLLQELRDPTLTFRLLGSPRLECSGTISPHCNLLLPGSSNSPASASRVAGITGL
Nature of the test: HPK1 biochemical enzyme assay (microfluidic mobility shift assay). To be noted: 1000 uM (1 mM) ATP; Caliper mobility shift; 1.5 nM HPK1; 30 min preincubation; read-out: HPK1 1000UMATP caliper IC50. On the procedure:
Example 33. HPK1 Biochemical Enzyme Assay
HPK1 biochemical enzyme assay: HPK1 enzyme inhibition was measured using a microfluidic mobility shift assay. Reactions were performed in a 384-well plate, containing 1.5 nM HPK1 (Invitrogen), in assay buffer (Carna Biosciences; pH 7.4). Test compounds were titrated in ten point curves (top final assay concentration 3 μM), and preincubated with enzyme/substrate mix for 30 min prior to initiation of the reaction by addition of ATP (1 mM final concentration) and substrate (1 μM final concentration; Carna Biosciences) diluted in assay buffer supplemented by MgCl2 (final assay concentration of 5 mM). Following 60 min incubation at RT, the reaction was terminated by addition of 60 μl/well termination buffer (Carna Biosciences) and signal determination using a Caliper EZ Reader (Perkin Elmer, UK).
The compound numbers correspond to the compound numbers in Table 1. Compounds having an activity designated as “A” provided an IC50≤100 nM; compounds having an activity designated as “B” provided an IC50>100 nM and ≤1,000 nM; compounds having an activity designated as “C” provided an IC50>1,000 nM.
Turning to `COc1cc(F)c(-c2cc(Nc3ccc(N4CCC(O)CC4)cn3)c3c(=O)[nH]ccc3n2)cc1CN1CCCCC1` [I-202, 2-[2-fluoro-4-methoxy-5-(1-piperidyl-methyl)phenyl]-4-[[5-(4-hydroxy-1-piperidyl)-1-2-pyridyl]amino]-6H-1,6-naphthyridin 5-one], the pIC50 was no less than 7.00.

On to `CC1(C(=O)Nc2ccc(-c3cc(Nc4ccc(N5CCC(O)CC5)cn4)c4c(=O)[nH]ccc4n3)c(F)c2)CC1` [I-153], for which the pIC50 is 6.00 to 7.00. As for `Cn1ccnc1N1CCN(c2cc(Nc3ccc(N4CCC(O)CC4)cn3)c3c(=O)[nH]ccc3n2)CC1` [I-271, 4-[[5-(4-hydroxy-1-piperidyl)-2-pyridyl]amino]-2-[4-(1-methyl-imidazol-2-yl)piperazin-1-yl]-6H-1,6-naphthyridin-5-one], the figure is no less than 7.00; as for `O=c1[nH]ccc2nc(-c3cccc(CN4CCOCC4)c3F)cc(Nc3ccc(N4CCC(O)CC4)cn3)c12` [I-171, 2-[2-fluoro-3-(morpholino-methyl)phenyl]-4-[[5-(4-hydroxy-1-piperidyl)-2-pyridyl]amino]-6H-1,6-naphthyridin-5-one], 6.00 to 7.00; as for `CC1CCCCN1C(=O)c1ccc(-c2cc(Nc3ccc(N4CCC(O)CC4)cn3)c3c(=O)[nH]ccc3n2)c(F)c1` (stereo not drawn) [I-130, 2-[2-fluoro-4-(2-methyl-piperidine-1-carbonyl)phenyl]-4-[[5-(4-hydroxy-1-piperidyl)-2-pyridyl]amino]-6H-1,6-naphthyridin-5-one], no less than 7.00. On to `O=c1[nH]ccc2nc(C3CCCCC3)cc(Nc3ccc(N4CCC(O)CC4)cn3)c12` [I-19, 2-cyclohexyl-4-[[5-(4-hydroxy-1-piperidyl)-2-pyridyl]amino]-6H-1,6-naphthyridin-5-one], for which the negative logarithm of the IC50 (pIC50) is 6.00 to 7.00.

As for `COc1cc(-c2cc(Nc3ccc(N4CCNCC4)cn3)c3c(=O)[nH]ccc3n2)c(F)cc1NC(=O)C1CCCCC1` [I-208, N-[5-fluoro-2-methoxy-4-[5-oxo-4-[(5-piperazin-1-yl-2-pyridyl)amino]-6H-1,6-naphthyridin-2-yl]phenyl] cyclohexane carboxamide], the negative-log IC50 (pIC50) was 6.00 to 7.00. On to `O=C(c1ccc(F)c(-c2cc(Nc3ccc(N4CCC(O)CC4)cn3)c3c(=O)[nH]ccc3n2)c1)N1CCCC1` [I-93, 2-[2-fluoro-5-(pyrrolidine-1-carbonyl)phenyl]-4-[[5-(4-hydroxy-1-piperidyl)-2-pyridyl]amino]-6H-1,6-naphthyridin-5-one], for which the pIC50 is no less than 7.00.

Take `CC(C)Oc1ccc(F)c(-c2cc(Nc3ccc(N4CCC(O)CC4)cn3)c3c(=O)[nH]ccc3n2)c1` [I-67, 2-(2-fluoro-5-isopropoxy-phenyl)-4-[[5-(4-hydroxy-1-piperidyl)-2-pyridyl]amino]-6H-1,6-naphthyridin-5-one]: the negative-log IC50 (pIC50) is 6.00 to 7.00. On to `CC(=O)NC1CCCN(c2cc(Nc3ccc(N4CCC(O)CC4)cn3)c3c(=O)[nH]ccc3n2)C1` (stereo not drawn) [I-78, N-[1-[4-[[5-(4-hydroxy-1-piperidyl)-2-pyridyl]amino]-5-oxo-6H-1,6-naphthyridin-2-yl]-3-piperidyl] acetamide], for which the pIC50 was less than 6.00.

Turning to `O=c1[nH]ccc2nc(-c3cc4c(cc3F)CCC4N3CCCCC3)cc(Nc3ccc(N4CCC(O)CC4)cn3)c12` (stereo not drawn) [I-249, 2-[6-fluoro-3-(1-piperidyl)indan-5-yl]-4-[[5-(4-hydroxy-1-piperidyl)-2-pyridyl]amino]-6H-naphthyridin-5-one], the pIC50 is no less than 7.00. `COc1cc(-c2cc(Nc3ccc(N4[C@H](C)COC[C@H]4C)cn3)c3c(=O)[nH]ccc3n2)c(F)cc1C(=O)N1CCCCC1` [I-190, 4-[[5-[(3R, 5R)-3,5-dimethyl-morpholin-4-yl]-2-pyridyl]amino]-2-[2-fluoro-5-methoxy-4-(piperidine-1-carbonyl)phenyl]-6H-1,6-naphthyridin-5-one]: the pIC50 is 6.00 to 7.00.

On to `O=c1[nH]ccc2nc(-c3cc(C4COC4)ccc3F)cc(Nc3ccc(N4CCC(O)CC4)cn3)c12` [I-103, 2-[2-fluoro-5-(oxetan-3-yl)phenyl]-4-[[5-(4-hydroxy-1-piperidyl)-2-pyridyl]amino]-6H-1,6-naphthyridin-5-one], for which the pIC50 was no less than 7.00. In the case of `CNCc1ccc(F)c(-c2cc(Nc3ccc(N4CCC(O)CC4)cn3)c3c(=O)[nH]ccc3n2)c1` [I-217, 2-[2-fluoro-5-(methyl-amino-methyl)phenyl]-4-[[5-(4-hydroxy-1-piperidyl)-2-pyridyl]amino]-6H-1,6-naphthyridin-5-one], the pIC50 was 6.00 to 7.00.

In the case of `CC1(C(=O)Nc2ccc(-c3cc(Nc4ccc(N5CCC(O)CC5)cn4)c4c(=O)[nH]ccc4n3)c(F)c2)COC1` [I-205], the pIC50 is no less than 7.00. Regarding `CNC(C)(c1ccc(F)c(-c2cc(Nc3ccc(N4CCC(O)CC4)cn3)c3c(=O)[nH]ccc3n2)c1)C(F)(F)F` (stereo not drawn) [I-263, 2-[2-fluoro-5-[2,2,2-trifluoro-1-methyl-1-(methyl-amino)ethyl]phenyl]-4-[[5-(4-hydroxy-1-piperidyl)-2-pyridyl]amino]-6H-1,6-naphthyridin-5-one], the pIC50 was no less than 7.00. In the case of `CCC1(C(=O)N(C)c2ccc(-c3cc(Nc4ccc(N5CCNCC5)cn4)c4c(=O)[nH]ccc4n3)c(F)c2)CCC1` [I-247, 1-ethyl-N-[3-fluoro-4-[5-oxo-4-[(5-piperazin-1-yl-2-pyridyl)amino]-6H-1,6-naphthyridin-2-yl]phenyl]-N-methyl-cyclobutane-carboxamide] it was no less than 7.00; in that of `O=c1[nH]ccc2nc(N3CCC[C@H](O)C3)cc(Nc3ccc(N4CCC(O)CC4)cn3)c12` [I-81, 2-[(3S)-3-hydroxy-1-piperidyl]-4-[[5-(4-hydroxy-1-piperidyl)-2-pyridyl]amino]-6H-1,6-naphthyridin-5-one], no less than 7.00.

Take `CCOC(=O)C(C)(C)c1ccc(Nc2cc(-c3c(F)cccc3F)nc3cc[nH]c(=O)c23)nc1` [I-53, ethyl 2-[6-[[2-(2,6-difluoro-phenyl)-5-oxo-6H-1,6-naphthyridin-4-yl]amino]-3-pyridyl]-2-methyl-propanoate]: the pIC50 is no less than 7.00. As for `O=C1Cc2cc(-c3cc(Nc4ccc(N5CCC(O)CC5)cn4)c4c(=O)[nH]ccc4n3)cnc2N1` [I-226, 4-[[5-(4-hydroxy-1-piperidyl)-2-pyridyl]amino]-2-(2-oxo-1,3-dihydro-pyrrolo[2,3-b]pyridin-5-yl)-6H-1,6-naphthyridin-5-one], the pIC50 is no less than 7.00. As for `O=c1[nH]ccc2nc(-c3ccc(OCc4ccncc4)cc3F)cc(Nc3ccc(N4CCC(O)CC4)cn3)c12` [I-61, 2-[2-fluoro-4-(4-pyridyl-methoxy)phenyl]-4-[[5-(4-hydroxy-1-piperidyl)-2-pyridyl]amino]-6H-1,6-naphthyridin-5-one], the figure is 6.00 to 7.00; as for `CCNC(=O)c1ccc(Nc2nc(-c3c(F)cccc3F)cc3cc[nH]c(=O)c23)cc1` [I-7, 4-[[3-(2,6-difluorophenyl)-8-oxo-7H-2,7-naphthyridin-1-yl]amino]-N-ethyl-benzamide], 6.00 to 7.00.

In the case of `CCNC(=O)c1ccc(Nc2nc(-c3c(F)cccc3F)cc3nc[nH]c(=O)c23)cc1` [I-12, 4-[[7-(2,6-difluorophenyl)-4-oxo-3H-pyrido[4,3-d]pyrimidin-5-yl]amino]-N-ethyl-benzamide], the negative-log IC50 (pIC50) was 6.00 to 7.00. In the case of `O=c1[nH]ccc2nc(-c3cc4c(cc3F)CCC4O)cc(Nc3ccc(N4CCC(O)CC4)cn3)c12` (stereo not drawn) [I-192, 2-(6-fluoro-3-hydroxy-indan-5-yl)-4-[[5-(4-hydroxy-1-piperidyl)-2-pyridyl]amino]-6H-1,6-naphthyridin-5-one], the pIC50 was 6.00 to 7.00.

As for `CCOc1ccc(F)c(-c2cc(Nc3ccc(N4CCC(O)CC4)cn3)c3c(=O)[nH]ccc3n2)c1` [I-66, 2-(5-ethoxy-2-fluoro-phenyl)-4-[[5-(4-hydroxy-1-piperidyl)-2-pyridyl]amino]-6H-1,6-naphthyridin-5-one], the pIC50 is 6.00 to 7.00. Take `O=C(Nc1ccc(-c2cc(Nc3ccc(N4CCC(O)CC4)cn3)c3c(=O)[nH]ccc3n2)c(F)c1)[C@@H]1C[C@H]2CC[C@@H]1C2` (single isomer, unassigned) [I-269]: the pIC50 is 6.00 to 7.00.

`O=C(c1ccc(-c2cc(Nc3ccc(N4CCC(O)CC4)cn3)c3c(=O)[nH]ccc3n2)c(F)c1)N1CCNCC1` [I-119, 2-[2-fluoro-4-(piperazine-1-carbonyl)phenyl]-4-[[5-(4-hydroxy-1-piperidyl)-2-pyridyl]amino]-6H-1,6-naphthyridin-5-one]: the pIC50 is 6.00 to 7.00. For the compound `O=C(c1ccc(-c2cc(Nc3ccc(N4CCC(O)CC4)cn3)c3c(=O)[nH]ccc3n2)c(F)c1)N1CC2C(C1)C2(F)F` (stereo not drawn) [I-138, 2-[4-(6,6-difluoro-3-azabicyclo [3.1.0]hexane-3-carbonyl)-2-fluoro-phenyl]-4-[[5-(4-hydroxy-1-piperidyl)-2-pyridyl]amino]-6H-1,6-naphthyridin-5-one], the pIC50 is 6.00 to 7.00. Take `Cc1cc(-c2cc(Nc3ccc(N4CCNCC4)cn3)c3c(=O)[nH]ccc3n2)c(F)cc1NC(=O)C1CCCCC1` [I-197, N-[5-fluoro-2-methyl-4-[5-oxo-4-[(5-piperazin-1-yl-2-pyridyl)amino]-6H-1,6-naphthyridin-2-yl]phenyl] cyclohexane carboxamide]: the pIC50 is 6.00 to 7.00. In the case of `CN(C)C(=O)c1ccc(-c2cc(Nc3ccc(N4CCC(O)CC4)cn3)c3c(=O)[nH]ccc3n2)c(F)c1` [I-62, 3-fluoro-4-[4-[[5-(4-hydroxy-1-piperidyl)-2-pyridyl]amino]-5-oxo-6H-1,6-naphthyridin-2-yl]-N,N-dimethyl-benzamdie] it was 6.00 to 7.00.
